Measurements from PubChem BioAssay (NCI).
Several values for one entry are separate records, joined by “and”; a condition that tells them apart may be missing. Identical values can stand only once.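 Each compound was tested at five concentrations against cells in 96-well plates for 48 hours. GI50 is the concentration that inhibits growth by half. TGI: concentration producing complete growth inhibition.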

These molecules were tested on MDA-MB-468 breast (assay: growth of human tumour cells (NCI), 48 h).

Going from `COc1cc(OC)c(/C=C/c2c3ccccc3cc[n+]2C)c(OC)c1` to `COc1cc(/C=C/C(=O)c2cc(OC)c(OC)c(OC)c2)ccc1OCc1ccc(F)cc1`, the GI50 rises from 0.266 µM to 2.84 µM (11-fold).

Going from `OCCCNc1nccc(-c2c(-c3ccc(F)cc3)nn3cc(C(F)(F)F)ccc23)n1` to `O=C(CSc1nnc(-c2ccc(Cl)cc2)n1-c1ccccc1)Nc1cccc(F)c1`, the GI50 falls from 6.72 µM to 4.31 µM (1.6-fold).

First: CCN1C(=O)N(CC)C2C1NN=c1s/c(=C3\C(=O)N(CC(C)(C)C)c4ccccc43)c(=O)n12 (centres undefined)
Second: Cc1[nH]c(/C=C2\C(=O)Nc3ccccc32)c(C)c1CCC(=O)O
The GI50 of the first is 6.6-fold lower: 3.85 µM for the first, 25.6 µM for the second.

`CN(CCO)c1ccc(N2Cc3ccccc3OC3=C2C(=O)c2c(O)ccc(O)c2C3=O)cn1` and `CCn1c(=O)c2c(=O)c3c4c(oc3oc2c2ccccc21)C(=O)c1ccccc1C4=O` are within 1.5-fold of each other in GI50: 0.257 µM for the first, 0.199 µM for the second.

Going from `C#COc1cccc(Nc2c(C#N)cnc3ncc(NC(=O)CCl)cc23)c1` to `NC(=O)OCCn1cc(-c2nc(-c3c[nH]c4ncccc34)cs2)c2ccccc21`, the GI50 falls from 12.7 µM to 1.33 µM (9.5-fold).

`O=C(Nc1ccc(-n2ccc3c(NC(=O)c4ccccc4)nccc32)cc1)Nc1ccc(Cl)c(Cl)c1` and `COc1ccc(-n2c(C)cc(-c3ccccc3)c2C)cc1` are within 1.5-fold of each other in GI50: 1.41 µM for the first, 1.31 µM for the second.

First: O=C1NC(=O)C(c2cccc([N+](=O)[O-])c2)=C1Nc1cc(Cl)c(O)c(Cl)c1
Second: Cn1cc(C2=C(c3cccc(Br)c3)C(=O)NC2=O)c2ccccc21
The GI50 of the first is 1.8-fold higher: 12.3 µM for the first, 6.7 µM for the second.

First: CCN(Cc1ccccc1C)c1ccc(CO)c(Cl)c1
Second: CCOC(=O)/C=C(/C)Sc1cc(O)c2ccccc2c1O
The GI50 of the first is 91-fold lower: 0.0388 µM for the first, 3.55 µM for the second.

Going from `CC(=O)Oc1ccccc1C(=O)Nc1ncc([N+](=O)[O-])s1` to `CCCOc1ccc2sc(NC(=O)OC)nc2c1`, the GI50 falls from 1.93 µM to 1.19 µM (1.6-fold).

Compared with `O=C1NC(=O)/C(=C\c2ccccc2)C2=C1CCCC2`, `O=C1NC(=NCCc2cccc(Cl)c2)S/C1=C\c1ccc2ncccc2c1` is higher in GI50: 10.1 µM for the first, greater than 25 µM for the second.

Compared with `O=C(CSC1CCc2ccccc21)N/N=C/c1ccccc1O` (centres undefined), `Cc1cc(C)c(NC(=O)c2sc3nc4c(cc3c2N)CN(Cc2ccccc2)CC4)c(C)c1` is 1.5-fold lower in GI50: 2.73 µM for the first, 1.78 µM for the second.

Going from `Cc1cc(C)c(/C=C2\C(=O)Nc3ccc(NC(=O)CCCCCCC(=O)NO)cc32)[nH]1` to `CCCCCOc1ccc(/C=N/Nc2cc(C)nc3ccc(Br)cc23)cc1`, the GI50 rises from 0.367 µM to 1.83 µM (5-fold).

First: CCOC(=O)c1c(NC(=O)c2cccc(C(F)(F)F)c2)sc2c(CN(C)C)c(O)ccc12
Second: N=C(N)c1ccc2nc(-c3cc(CC(=O)N[C@@H](CC(=O)O)C(=O)O)cc(-c4cc(S(N)(=O)=O)ccc4O)c3O)[nH]c2c1
The GI50 of the first is lower: 1.72 µM for the first, greater than 100 µM for the second.

Compared with `O[C@H](c1cc(C(F)(F)F)nc2c(C(F)(F)F)cccc12)[C@@H]1CCCCN1`, `O=S(=O)(Nc1ccc(F)cc1F)c1ccc(-c2cnc(C3CC3)o2)cc1` is 4.4-fold lower in GI50: 1.72 µM for the first, 0.39 µM for the second.

Compared with `COc1ccc(-c2ccc(-c3ccc(C(=N)N)s3)s2)cc1`, `COc1ccc(O)c(C(=O)c2ccc(C(=O)N[C@H]3CCCNC[C@@H]3NC(=O)c3ccncc3)cc2)c1F` is 3-fold higher in GI50: 0.187 µM for the first, 0.552 µM for the second.

Compared with `COCC1(CO)C(=O)C2CCN1CC2` (centres undefined), `C=C1C(=O)O[C@H]2[C@H]1CC/C(COC(=O)/C=C\C(=O)NCc1ccc(Cn3c(=O)sn(CCCC)c3=O)cc1)=C\CC[C@@]1(C)O[C@@H]21` is 53-fold lower in GI50: 18.4 µM for the first, 0.348 µM for the second.

`O=C(NNc1nc2cc(F)c(F)cc2n2c(CN3CC4CNCC4C3)ccc12)c1cnccn1` (centres undefined) and `C1=C\COCc2cc(ccc2OCCN2CCCC2)Nc2nccc(n2)-c2cccc(c2)COC/1` are within 1.5-fold of each other in GI50: 1.34 µM for the first, 1.32 µM for the second.

Work on `C[C@H]1[C@H](C)CC[C@]2(C(=O)Nc3ccc4ncccc4c3)CC[C@]3(C)C(=CC[C@@H]4[C@@]5(C)CCCNC(C)(C)[C@@H]5CC[C@]43C)[C@H]12` yielded a GI50 of 1.74 µM.

Compared with `COc1cc(OC)c(/C=C/c2c3ccccc3cc[n+]2C)c(OC)c1`, `COc1cc(/C=C/C(=O)c2cc(OC)c(OC)c(OC)c2)ccc1OCc1ccc(F)cc1` is higher in TGI: 2.66 µM for the first, greater than 100 µM for the second.

`OCCCNc1nccc(-c2c(-c3ccc(F)cc3)nn3cc(C(F)(F)F)ccc23)n1` and `O=C(CSc1nnc(-c2ccc(Cl)cc2)n1-c1ccccc1)Nc1cccc(F)c1` cannot be ordered by TGI: greater than 20.3 µM for the first, greater than 100 µM for the second.

Compared with `CCN1C(=O)N(CC)C2C1NN=c1s/c(=C3\C(=O)N(CC(C)(C)C)c4ccccc43)c(=O)n12` (centres undefined), `Cc1[nH]c(/C=C2\C(=O)Nc3ccccc32)c(C)c1CCC(=O)O` is 3.7-fold higher in TGI: 18.8 µM for the first, 70 µM for the second.

`CN(CCO)c1ccc(N2Cc3ccccc3OC3=C2C(=O)c2c(O)ccc(O)c2C3=O)cn1` and `CCn1c(=O)c2c(=O)c3c4c(oc3oc2c2ccccc21)C(=O)c1ccccc1C4=O` are within 1.5-fold of each other in TGI: 0.659 µM for the first, 0.701 µM for the second.

First: C#COc1cccc(Nc2c(C#N)cnc3ncc(NC(=O)CCl)cc23)c1
Second: NC(=O)OCCn1cc(-c2nc(-c3c[nH]c4ncccc34)cs2)c2ccccc21
The TGI of the first is 16-fold higher: 60.3 µM for the first, 3.8 µM for the second.

`O=C(Nc1ccc(-n2ccc3c(NC(=O)c4ccccc4)nccc32)cc1)Nc1ccc(Cl)c(Cl)c1` and `COc1ccc(-n2c(C)cc(-c3ccccc3)c2C)cc1` are within 1.5-fold of each other in TGI: 2.96 µM for the first, 3.47 µM for the second.

`O=C1NC(=O)C(c2cccc([N+](=O)[O-])c2)=C1Nc1cc(Cl)c(O)c(Cl)c1` and `Cn1cc(C2=C(c3cccc(Br)c3)C(=O)NC2=O)c2ccccc21` cannot be ordered by TGI: greater than 25 µM for the first, greater than 25 µM for the second.

Going from `CCN(Cc1ccccc1C)c1ccc(CO)c(Cl)c1` to `CCOC(=O)/C=C(/C)Sc1cc(O)c2ccccc2c1O`, the TGI rises from 0.288 µM to 12.1 µM (42-fold).

Going from `CC(=O)Oc1ccccc1C(=O)Nc1ncc([N+](=O)[O-])s1` to `CCCOc1ccc2sc(NC(=O)OC)nc2c1`, the TGI rises from 7.64 µM to greater than 100 µM.

`O=C1NC(=O)/C(=C\c2ccccc2)C2=C1CCCC2` and `O=C1NC(=NCCc2cccc(Cl)c2)S/C1=C\c1ccc2ncccc2c1` cannot be ordered by TGI: 30.2 µM for the first, greater than 25 µM for the second.

First: O=C(CSC1CCc2ccccc21)N/N=C/c1ccccc1O (centres undefined)
Second: Cc1cc(C)c(NC(=O)c2sc3nc4c(cc3c2N)CN(Cc2ccccc2)CC4)c(C)c1
The TGI of the first is 6.4-fold lower: 13.9 µM for the first, 88.7 µM for the second.

Going from `Cc1cc(C)c(/C=C2\C(=O)Nc3ccc(NC(=O)CCCCCCC(=O)NO)cc32)[nH]1` to `CCCCCOc1ccc(/C=N/Nc2cc(C)nc3ccc(Br)cc23)cc1`, the TGI falls from 22.6 µM to 3.57 µM (6.3-fold).

Compared with `CCOC(=O)c1c(NC(=O)c2cccc(C(F)(F)F)c2)sc2c(CN(C)C)c(O)ccc12`, `N=C(N)c1ccc2nc(-c3cc(CC(=O)N[C@@H](CC(=O)O)C(=O)O)cc(-c4cc(S(N)(=O)=O)ccc4O)c3O)[nH]c2c1` is higher in TGI: 3.8 µM for the first, greater than 100 µM for the second.

Compared with `COC(=O)[C@@H](C)C[C@H](Cc1ccccc1)NC(=O)c1csc([C@@H](C[C@H](C(C)C)N(C)C(=O)[C@@H](NC(=O)[C@H]2CCCCN2C)C2CCCCC2)OC(C)=O)n1`, `C[C@H]1[C@H](C)CC[C@]2(C(=O)Nc3ccc4ncccc4c3)CC[C@]3(C)C(=CC[C@@H]4[C@@]5(C)CCCNC(C)(C)[C@@H]5CC[C@]43C)[C@H]12` is lower in TGI: greater than 25 µM for the first, 3.45 µM for the second.

Going from `O[C@H](c1cc(C(F)(F)F)nc2c(C(F)(F)F)cccc12)[C@@H]1CCCCN1` to `O=S(=O)(Nc1ccc(F)cc1F)c1ccc(-c2cnc(C3CC3)o2)cc1`, the TGI rises from 4.19 µM to 7.86 µM (1.9-fold).

Compared with `COc1ccc(-c2ccc(-c3ccc(C(=N)N)s3)s2)cc1`, `COc1ccc(O)c(C(=O)c2ccc(C(=O)N[C@H]3CCCNC[C@@H]3NC(=O)c3ccncc3)cc2)c1F` is higher in TGI: 0.379 µM for the first, greater than 25 µM for the second.

Going from `COCC1(CO)C(=O)C2CCN1CC2` (centres undefined) to `C=C1C(=O)O[C@H]2[C@H]1CC/C(COC(=O)/C=C\C(=O)NCc1ccc(Cn3c(=O)sn(CCCC)c3=O)cc1)=C\CC[C@@]1(C)O[C@@H]21`, the TGI falls from 40.3 µM to 1.39 µM (29-fold).

First: O=C(NNc1nc2cc(F)c(F)cc2n2c(CN3CC4CNCC4C3)ccc12)c1cnccn1 (centres undefined)
Second: C1=C\COCc2cc(ccc2OCCN2CCCC2)Nc2nccc(n2)-c2cccc(c2)COC/1
The TGI of the first is 1.7-fold higher: 6.54 µM for the first, 3.79 µM for the second.

For `O=C(c1ccc(/C=C/c2n[nH]c3ccccc23)cc1)N1CCNCC1`, the GI50 was 2.45 µM and 9.15 µM.
`COC(=O)[C@@H](C)C[C@H](Cc1ccccc1)NC(=O)c1csc([C@@H](C[C@H](C(C)C)N(C)C(=O)[C@@H](NC(=O)[C@H]2CCCCN2C)C2CCCCC2)OC(C)=O)n1` was tested, and the GI50 was 0.000311 µM and 0.0025 µM.

In the case of `O=C(c1ccc(/C=C/c2n[nH]c3ccccc23)cc1)N1CCNCC1`, the TGI is reported as > 10 µM and 22.5 µM.
